A word on the IC50: it is the concentration that gives 50% inhibition. What is called solubility is the dissolved amount per volume that the medium holds. Low values mean a poorly soluble substance, high ones a readily soluble substance.

Each structure is given as a SMILES string. Values after ≈ are worked out from the molar mass of the structure shown.

Series [1] concerns the target Calcium/calmodulin-dependent protein kinase kinase 2 (Homo sapiens, UniProt Q96RR4). The series can be described thus: Inhibition of CAMKK2 (unknown origin) after 60 mins by TR-FRET assay.
Series [2] concerns the target Epidermal growth factor receptor (Homo sapiens, UniProt P00533). The series can be described thus: Inhibition of EGFR (unknown origin) after 60 mins by TR-FRET assay. Background: TR-FRET usually uses a lanthanide donor and a delayed reading to cut background.
For series [3], the target named is Mitogen-activated protein kinase kinase kinase 10 (Homo sapiens, UniProt Q02779). Kind of series: Inhibition of MAP3K10 (unknown origin) after 60 mins by TR-FRET assay.
Series [4] in a line: Unbound clearance in human microsomes. The series is classed as ADME, Microsome.
Series [5] concerns the target Serine/threonine-protein kinase Sgk1 (Homo sapiens, UniProt O00141). Kind of series: Inhibition of SGK1 (unknown origin) after 60 mins by TR-FRET assay.
For series [6], the target named is Tyrosine-protein kinase ABL1 (Homo sapiens, UniProt P00519). Kind of series: Inhibition of ABL (unknown origin) after 60 mins by TR-FRET assay.
The target of series [7] is T1, CYP3A4 (Homo sapiens, UniProt P08684). Kind of series: Inhibition of CYP3A4 in human liver microsomes assessed as residual activity at 50 uM measured after 30 mins relative to control. The conditions noted are these: read-out: Activity. In kind it is ADME. (Liver microsomes are a subcellular fraction often used to study metabolism.)
Series [8] deals with T1, CYP3A4. The series can be described thus: Inhibition of CYP3A4 in human liver microsomes assessed as residual activity at 10 uM measured immediately relative to control. The series is classed as ADME. The note with it: read-out: Activity.
Series [9] deals with Rho-associated protein kinase 2 (Homo sapiens, UniProt O75116). The series can be described thus: Inhibition of ROCK2 (unknown origin) after 60 mins by TR-FRET assay.
Series [10] addresses Serine/threonine-protein kinase pim-2 (Homo sapiens, UniProt Q9P1W9). Kind of series: Inhibition of PIM2 (unknown origin) after 60 mins by TR-FRET assay.
The target of series [11] is Proto-oncogene tyrosine-protein kinase Src (Homo sapiens, UniProt P12931). The series can be described thus: Inhibition of SRC (unknown origin) after 60 mins by TR-FRET assay.
In series [12] the target is RAC-alpha serine/threonine-protein kinase (Homo sapiens, UniProt P31749). The series can be described thus: Inhibition of AKT (unknown origin) after 60 mins by TR-FRET assay.
Series [13] concerns the target T1, CYP3A4. The series can be described thus: Inhibition of CYP3A4 in human liver microsomes assessed as residual activity at 50 uM measured immediately relative to control. The series is classed as ADME. The conditions noted are these: read-out: Activity.
The target in series [14] is Cyclin-dependent kinase 2 (Homo sapiens, UniProt P24941). Kind of series: Inhibition of CDK2 (unknown origin) after 60 mins by TR-FRET assay.
Series [15] is described as follows: Inhibition of CDK11 (unknown origin) after 60 mins by TR-FRET assay. More on the design: species or system Homo sapiens.
The nature of series [16]: Solubility in pH 5 FeSSIF at 0.2 mg sonicated for 10 mins followed by incubation for 2 days by HPLC analysis. In kind it is physicochemical.
Series [17] has as its target Protein kinase C zeta type (Homo sapiens, UniProt Q05513). Kind of series: Inhibition of PKCzeta (unknown origin) after 60 mins by TR-FRET assay.
The target of series [18] is Serine/threonine-protein kinase B-raf (Homo sapiens, UniProt P15056). Kind of series: Inhibition of BRAF (unknown origin) after 60 mins by TR-FRET assay.
In series [19] the target is cGMP-dependent protein kinase 1 (Homo sapiens, UniProt Q13976). The series can be described thus: Inhibition of PKG1A (unknown origin) after 60 mins by TR-FRET assay.
Series [20] concerns the target T1, CYP3A4. The series can be described thus: Inhibition of CYP3A4 in human liver microsomes assessed as residual activity at 10 uM measured after 30 mins relative to control. The note with it: read-out: Activity. The series is classed as ADME.
Series [21] concerns the target Dual specificity mitogen-activated protein kinase kinase 3 (Homo sapiens, UniProt P46734). The series can be described thus: Inhibition of MAP2K3 (unknown origin) after 60 mins by TR-FRET assay.
The target in series [22] is Serine/threonine-protein kinase 16 (Homo sapiens, UniProt O75716). Kind of series: Inhibition of STK16 (unknown origin) after 60 mins by TR-FRET assay.
Series [23] addresses Epithelial discoidin domain-containing receptor 1 (Homo sapiens, UniProt Q08345). Kind of series: Inhibition of DDR1 (unknown origin) after 60 mins by TR-FRET assay.
Series [24] has as its target Tyrosine-protein kinase SYK (Homo sapiens, UniProt P43405).
Description: Inhibition of C-terminal His-tagged Syk catalytic domain (356 to 635 residues) (unknown origin) using biotin-TYR1 as substrate after 60 mins by TR-FRET assay
Series [25] addresses T2, Dual specificity protein kinase TTK (Homo sapiens, UniProt P33981).
T2 sequence (P33981 whole entry): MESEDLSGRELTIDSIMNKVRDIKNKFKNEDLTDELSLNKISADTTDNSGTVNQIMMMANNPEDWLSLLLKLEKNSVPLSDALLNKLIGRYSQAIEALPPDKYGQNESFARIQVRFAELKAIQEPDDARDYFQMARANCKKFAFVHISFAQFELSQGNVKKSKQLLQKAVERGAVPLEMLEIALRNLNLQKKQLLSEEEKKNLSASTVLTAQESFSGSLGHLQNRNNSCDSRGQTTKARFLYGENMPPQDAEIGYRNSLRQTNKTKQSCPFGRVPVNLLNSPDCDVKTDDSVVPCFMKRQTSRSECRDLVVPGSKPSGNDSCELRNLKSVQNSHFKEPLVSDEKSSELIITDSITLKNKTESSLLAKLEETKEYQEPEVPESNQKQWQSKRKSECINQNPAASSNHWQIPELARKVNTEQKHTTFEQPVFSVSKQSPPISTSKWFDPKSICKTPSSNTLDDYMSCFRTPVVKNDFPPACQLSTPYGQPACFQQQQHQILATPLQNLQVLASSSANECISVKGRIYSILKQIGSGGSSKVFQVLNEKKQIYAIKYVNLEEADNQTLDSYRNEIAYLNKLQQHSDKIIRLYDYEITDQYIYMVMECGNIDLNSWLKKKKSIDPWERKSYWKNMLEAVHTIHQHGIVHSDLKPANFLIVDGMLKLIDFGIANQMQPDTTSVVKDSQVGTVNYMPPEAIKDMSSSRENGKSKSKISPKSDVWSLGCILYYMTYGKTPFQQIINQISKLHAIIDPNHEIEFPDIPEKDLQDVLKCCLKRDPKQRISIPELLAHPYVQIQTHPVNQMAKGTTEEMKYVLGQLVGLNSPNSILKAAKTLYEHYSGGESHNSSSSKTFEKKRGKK
The series can be described thus: Inhibition of TTK (unknown origin) after 60 mins by TR-FRET assay.

The target in another series is Cytochrome P450 3A4 (Homo sapiens, UniProt P08684). The series can be described thus: Time-dependent inhibition of CYP3A4 in human liver microsomes at 10 to 50 uM. In kind it is ADME.
Sequence of Cytochrome P450 3A4 (P08684 whole entry): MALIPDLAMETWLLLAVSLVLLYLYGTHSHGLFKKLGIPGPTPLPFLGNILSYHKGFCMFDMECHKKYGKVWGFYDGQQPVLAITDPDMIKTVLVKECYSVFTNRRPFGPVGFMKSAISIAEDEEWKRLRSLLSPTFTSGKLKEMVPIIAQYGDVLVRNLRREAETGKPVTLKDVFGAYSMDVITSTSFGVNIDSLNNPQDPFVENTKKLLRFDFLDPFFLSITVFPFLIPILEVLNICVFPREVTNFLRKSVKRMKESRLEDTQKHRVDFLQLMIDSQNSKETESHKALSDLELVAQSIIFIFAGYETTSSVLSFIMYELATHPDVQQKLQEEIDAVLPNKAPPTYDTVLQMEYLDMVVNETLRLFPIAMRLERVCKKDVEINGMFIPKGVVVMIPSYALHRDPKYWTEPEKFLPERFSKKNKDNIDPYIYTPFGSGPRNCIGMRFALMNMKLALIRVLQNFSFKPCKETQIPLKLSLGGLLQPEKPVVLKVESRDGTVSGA

Sequence of Rho-associated protein kinase 2 (O75116 whole entry): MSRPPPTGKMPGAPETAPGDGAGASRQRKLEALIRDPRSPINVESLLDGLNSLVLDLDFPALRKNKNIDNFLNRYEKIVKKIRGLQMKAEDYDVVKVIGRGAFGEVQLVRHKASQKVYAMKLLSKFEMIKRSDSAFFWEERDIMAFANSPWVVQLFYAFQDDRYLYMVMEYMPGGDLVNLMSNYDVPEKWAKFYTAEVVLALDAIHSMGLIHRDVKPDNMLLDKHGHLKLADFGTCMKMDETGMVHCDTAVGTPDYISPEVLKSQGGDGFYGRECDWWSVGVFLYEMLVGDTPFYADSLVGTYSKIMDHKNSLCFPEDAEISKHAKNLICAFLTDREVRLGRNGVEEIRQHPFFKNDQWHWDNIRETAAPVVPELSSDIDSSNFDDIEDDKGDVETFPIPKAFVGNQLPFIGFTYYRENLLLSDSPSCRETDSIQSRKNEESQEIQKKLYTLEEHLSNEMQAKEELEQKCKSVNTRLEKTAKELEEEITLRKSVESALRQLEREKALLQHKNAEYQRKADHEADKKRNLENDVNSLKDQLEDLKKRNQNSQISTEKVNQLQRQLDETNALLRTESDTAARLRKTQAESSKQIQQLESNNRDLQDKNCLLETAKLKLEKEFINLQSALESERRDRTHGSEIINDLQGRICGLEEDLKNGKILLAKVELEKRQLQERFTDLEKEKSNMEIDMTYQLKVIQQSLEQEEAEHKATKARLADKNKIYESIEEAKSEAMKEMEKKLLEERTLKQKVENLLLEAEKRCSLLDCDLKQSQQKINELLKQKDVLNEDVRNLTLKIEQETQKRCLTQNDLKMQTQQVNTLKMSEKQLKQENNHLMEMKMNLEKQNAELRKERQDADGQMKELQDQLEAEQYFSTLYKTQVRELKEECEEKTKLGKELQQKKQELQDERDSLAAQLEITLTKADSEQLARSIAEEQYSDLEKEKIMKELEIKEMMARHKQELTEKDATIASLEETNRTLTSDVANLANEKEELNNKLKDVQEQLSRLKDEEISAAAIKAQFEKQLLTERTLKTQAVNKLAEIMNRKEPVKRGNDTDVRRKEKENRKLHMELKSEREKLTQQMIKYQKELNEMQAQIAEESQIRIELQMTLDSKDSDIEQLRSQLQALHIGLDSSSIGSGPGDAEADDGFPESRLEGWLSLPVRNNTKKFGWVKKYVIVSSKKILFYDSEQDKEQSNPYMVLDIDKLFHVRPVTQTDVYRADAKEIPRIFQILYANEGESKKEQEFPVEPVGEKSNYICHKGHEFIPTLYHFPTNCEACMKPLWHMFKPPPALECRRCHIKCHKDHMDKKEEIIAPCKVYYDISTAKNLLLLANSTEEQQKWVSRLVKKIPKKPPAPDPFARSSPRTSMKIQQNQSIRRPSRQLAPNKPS
T1 sequence (P08684 whole entry): as the sequence (P08684 whole entry) above
Sequence of Serine/threonine-protein kinase 16 (O75716 whole entry, the tested form may be a part): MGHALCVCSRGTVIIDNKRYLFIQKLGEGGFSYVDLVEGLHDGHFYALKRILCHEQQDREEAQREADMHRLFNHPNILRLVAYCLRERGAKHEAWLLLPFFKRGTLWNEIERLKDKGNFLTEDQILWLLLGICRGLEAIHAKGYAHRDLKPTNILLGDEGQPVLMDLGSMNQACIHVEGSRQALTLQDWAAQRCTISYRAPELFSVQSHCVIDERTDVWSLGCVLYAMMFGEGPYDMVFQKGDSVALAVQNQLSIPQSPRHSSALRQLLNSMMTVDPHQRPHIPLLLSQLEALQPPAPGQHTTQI
Sequence of Tyrosine-protein kinase ABL1 (P00519 whole entry): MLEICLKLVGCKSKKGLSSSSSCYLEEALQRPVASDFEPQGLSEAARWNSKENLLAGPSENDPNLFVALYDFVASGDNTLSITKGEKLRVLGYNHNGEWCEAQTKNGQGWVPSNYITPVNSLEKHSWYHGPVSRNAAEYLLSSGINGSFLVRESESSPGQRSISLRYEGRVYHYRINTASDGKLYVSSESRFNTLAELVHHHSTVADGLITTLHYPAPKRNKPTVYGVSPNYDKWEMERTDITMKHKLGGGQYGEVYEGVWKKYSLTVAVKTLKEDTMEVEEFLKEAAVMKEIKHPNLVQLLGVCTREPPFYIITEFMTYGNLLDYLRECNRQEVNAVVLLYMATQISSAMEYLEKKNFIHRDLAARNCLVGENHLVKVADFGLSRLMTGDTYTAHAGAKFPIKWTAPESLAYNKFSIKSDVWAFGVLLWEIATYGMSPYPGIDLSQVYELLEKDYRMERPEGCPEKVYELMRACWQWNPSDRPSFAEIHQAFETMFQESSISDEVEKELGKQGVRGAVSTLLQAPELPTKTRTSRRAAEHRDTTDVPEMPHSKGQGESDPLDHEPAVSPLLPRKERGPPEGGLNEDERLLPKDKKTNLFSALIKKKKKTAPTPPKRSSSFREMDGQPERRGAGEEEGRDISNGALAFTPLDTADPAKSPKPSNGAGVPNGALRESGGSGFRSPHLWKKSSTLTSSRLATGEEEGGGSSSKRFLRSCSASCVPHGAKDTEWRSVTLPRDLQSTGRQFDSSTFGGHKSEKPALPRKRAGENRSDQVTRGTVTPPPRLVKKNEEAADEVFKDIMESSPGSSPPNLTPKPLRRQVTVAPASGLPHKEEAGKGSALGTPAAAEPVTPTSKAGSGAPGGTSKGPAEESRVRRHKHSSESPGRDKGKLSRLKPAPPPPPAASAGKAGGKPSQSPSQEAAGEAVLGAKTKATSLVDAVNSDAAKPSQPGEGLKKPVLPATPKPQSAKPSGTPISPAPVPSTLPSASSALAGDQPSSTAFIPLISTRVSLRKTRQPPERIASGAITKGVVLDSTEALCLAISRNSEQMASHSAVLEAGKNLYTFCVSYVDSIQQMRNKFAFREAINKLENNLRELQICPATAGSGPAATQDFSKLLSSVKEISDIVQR
Sequence of Protein kinase C zeta type (Q05513 whole entry): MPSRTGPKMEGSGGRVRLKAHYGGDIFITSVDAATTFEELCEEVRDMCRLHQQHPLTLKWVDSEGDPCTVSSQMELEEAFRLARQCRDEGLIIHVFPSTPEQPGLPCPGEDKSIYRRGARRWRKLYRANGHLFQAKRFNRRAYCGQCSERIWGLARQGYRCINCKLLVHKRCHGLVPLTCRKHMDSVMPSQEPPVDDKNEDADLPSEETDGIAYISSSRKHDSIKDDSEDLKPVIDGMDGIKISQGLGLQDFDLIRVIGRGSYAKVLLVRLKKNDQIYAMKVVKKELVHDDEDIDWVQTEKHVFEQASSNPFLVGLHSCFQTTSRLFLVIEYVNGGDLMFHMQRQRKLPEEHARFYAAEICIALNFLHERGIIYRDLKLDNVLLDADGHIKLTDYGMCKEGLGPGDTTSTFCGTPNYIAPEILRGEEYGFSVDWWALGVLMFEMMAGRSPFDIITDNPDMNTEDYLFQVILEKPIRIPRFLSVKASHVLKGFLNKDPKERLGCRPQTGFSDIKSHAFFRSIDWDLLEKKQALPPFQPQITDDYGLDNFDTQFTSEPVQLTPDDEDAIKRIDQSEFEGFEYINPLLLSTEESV
Sequence of RAC-alpha serine/threonine-protein kinase (P31749 whole entry): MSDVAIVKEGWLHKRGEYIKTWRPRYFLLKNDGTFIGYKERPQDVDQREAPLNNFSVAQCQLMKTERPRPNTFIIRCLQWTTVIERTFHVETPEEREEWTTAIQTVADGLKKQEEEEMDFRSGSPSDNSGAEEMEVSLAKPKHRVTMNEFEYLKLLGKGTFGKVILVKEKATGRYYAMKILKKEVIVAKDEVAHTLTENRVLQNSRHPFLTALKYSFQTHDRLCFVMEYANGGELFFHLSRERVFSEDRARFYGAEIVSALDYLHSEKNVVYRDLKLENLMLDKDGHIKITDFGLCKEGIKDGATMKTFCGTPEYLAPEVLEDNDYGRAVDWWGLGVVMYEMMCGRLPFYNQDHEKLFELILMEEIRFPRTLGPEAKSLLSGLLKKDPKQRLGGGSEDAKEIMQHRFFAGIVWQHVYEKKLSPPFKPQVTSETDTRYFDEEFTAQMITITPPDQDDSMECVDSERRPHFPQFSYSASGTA
Sequence of Dual specificity mitogen-activated protein kinase kinase 3 (P46734 whole entry): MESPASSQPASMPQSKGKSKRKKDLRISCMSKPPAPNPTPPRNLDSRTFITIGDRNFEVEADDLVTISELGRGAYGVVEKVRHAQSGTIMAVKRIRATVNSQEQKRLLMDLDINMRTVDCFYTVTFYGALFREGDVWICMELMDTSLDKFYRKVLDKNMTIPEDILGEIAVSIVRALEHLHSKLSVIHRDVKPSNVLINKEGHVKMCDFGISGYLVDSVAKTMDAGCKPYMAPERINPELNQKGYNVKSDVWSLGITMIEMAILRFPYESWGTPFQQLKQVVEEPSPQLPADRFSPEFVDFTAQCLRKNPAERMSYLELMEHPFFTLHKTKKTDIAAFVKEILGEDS

On to `CC1(C)OCC(=O)Nc2cc(Nc3nc(NCC(F)(F)F)c4occc4n3)ccc21`, for which the 50% inhibitory concentration (IC50) in [1] is 1.91 µM; in series [2], above 10 µM; in series [3] it was 4.55 µM; in series [5], above 10 µM; in [6], 0.408 µM; in series [9], 6.32 µM. Also, the IC50 in series [10] was above 10 µM; in series [11] it was 0.156 µM; in series [12] it was above 10 µM; in [14], above 10 µM; in series [15], above 10 µM; in series [17] it was above 10 µM. Besides, the concentration for half-maximal inhibition (IC50) in [18] was above 10 µM; in [19] it was above 10 µM; in series [21], above 10 µM; in series [22] it was 0.885 µM; in series [23] it was above 10 µM. This compound also had a CL free in series [4] of 170 mL/min/kg. Further, on CYP3A4 [7], the activity at 0.5 h, 50 µM is 75%. Also, the activity at 0 min, 10 µM on CYP3A4 [8] was 91%. Besides, the activity at 0 min, 50 µM at CYP3A4 [13] was found to be 92%. The compound further yielded a solubility at 48 h in [16] of 4.96 µM (≈ 2.09 µg/mL). Further, the activity at 0.5 h, 10 µM on CYP3A4 [20] was found to be 81%.

In the case of `FC(F)(F)CNc1nc(Nc2ccc(N3CCOCC3)c(Cl)c2)nc2ccoc12`, the IC50 in series [6] was 2.75 µM; in series [24] it was 0.061 µM; in series [9], above 10 µM; in [25], 1.84 µM.

In turn, `FC(F)(F)CNc1nc(Nc2ccc3cn[nH]c3c2)nc2ccoc12` displayed an IC50 in series [24] of 0.081 µM.

With `Cc1n[nH]c2cc(Nc3nc(NC4CC4)c4occc4n3)ccc12`, at CYP3A4 [7], the activity at 0.5 h, 50 µM was found to be 28%. Further, the activity at 0 min, 10 µM at CYP3A4 [8] amounted to 94%. Also, the values for the IC50 in [9], in series [22] and in series [25] were above 10 µM, 4.5 µM and 2.16 µM, respectively. At CYP3A4 [13], the activity at 0 min, 50 µM was found to be 87%. The solubility at 48 h in series [16] worked out at 99 µM (≈ 31.7 µg/mL). At Cytochrome P450 3A4, the TDI result was “Active”. In addition, the activity at 0.5 h, 10 µM at CYP3A4 [20] stood at 51%.

These data come from ChEMBL document CHEMBL4007384, “Synthesis and optimization of furano[3,2-d]pyrimidines as selective spleen tyrosine kinase (Syk) inhibitors” (Bioorg Med Chem Lett, 2016).
